Here are results for 1 compound from US20090124501A1, “Silicic Acid Componenet Supplying Agent For Algae And Method For Supplying Silicic Acid Component To Algae” (Incorporated Administrative Agency Fisheries Research Agency, priority 2006, published 2009).

For this test, the system named is Chaetoceros. The test can be described thus: Pigment and chlorophyll a content of Chaetoceros cultured for 20 days. In kind it is cell-based. How it is done: With respect to Chaetoceros cultured for 20 days after the silicic acid hydrogel and sodium metasilicate were added in an experimental plot and a control plot, respectively, under the same conditions as in Embodiment 3, difference in pigment and chlorophyll a content were examined. 20 mL of culture solution was collected from each of the experimental plot and the control plot, each cell density was measured, and only the cells were collected by suction filtration with a GF/F filter having a diameter of 47 mm (Whatman International Ltd.). Chlorophyll a was measured by a fluorescence method with a fluorometer (Turner Designs, Inc.) or by a measurement method with a spectrophotometer (Shimadzu Corporation).

With `O=[Si]([O-])[O-].[Na+].[Na+]` [sodium metasilicate], the chlorophyll a content (Chaetoceros cultured for 20 days) is 0.12-0.16 pg/cell. Further, the “color of Chaetoceros collected on the filters, visual observation” value (after culturing for 20 days, GF/F filter) is “light brown color”.
